Measured values taken from patent publication US12366576B2, “Compositions, assays, and methods for direct modulation of fatty acid metabolism” (Dana-Farber Cancer Institute, Inc., priority 2016, dated 2025).
Bridge positions count the residues as written; N and C are the ends. Square brackets hold non-standard residues; d marks the D form. Ends that are not written are not given here. S5 = C=CCCC[C@](C)(N)C(=O)O

Columns and labels:
CreER^T2 MEFs = assay: MS-based acylcarnitine quantification in MEFs; type: cell-based, mouse; details: 10 μM
MCL-1ΔNΔC = target: T1, MCL-1ΔNΔC (Homo sapiens, UniProt Q07820); assay: 19F NMR binding study with fluorinated SAHB; details: fluorinated SAHB 25 μM, MCL-1ΔNΔC 0-45 μM
T1 construct: The MCL-1ΔNΔC construct was grown and expressed in E. coli as previously described; made in house; host or cells: E. coli BL21(DE3)
Protocol: (§1) To measure the direct binding interaction, ^19F NMR binding studies were conducted using fluorinated analogs of MCL-1 SAHBD. […] Both SAHBs, however, bind MCL-1ΔNΔC, as illustrated by a chemical shift of the peptide NMR peak in both cases (FIG. 15). […] To perform these experiments, N-terminal Btn-PEG analogs of the peptides were immobilized onto streptavidin probes that were then placed into protein solutions at a variety of concentrations to measure ligand-target association.
MCL-1ΔNΔC. The MCL-1ΔNΔC construct was grown and expressed in E. coli as previously described (see, e.g., Stewart, Nat Chem Biol., 6(6):595-601 (2010)). Transformed BL21(DE3) E. coli were grown at 37° C. to an OD of 0.8, after which they were induced with 0.5 mM IPTG. […]
To determine binding of SAHBs to VLCAD, fluorinated SAHB (25 μM) and VLCAD (0-125 μM) were mixed together in VLCAD FPLC buffer including 10% D2O to a final volume of 500 μL. […] The extent to which VLCAD bound the peptide was determined by measuring the peak width at half height (ν1/2) of the peptide ^19F signal. […] MCL-1ΔNΔC binding to SAHBs causes a change in the ^19F chemical shift of the peptide resulting in two peptide signals (instead of peak broadening), so extent of binding was quantified by measuring the peak height of “unbound” peptide relative to the bound peptide signal.

VLCAD = target: T2, VLCAD (Homo sapiens, UniProt P49748); assay: Biolayer interferometry; type: binding; details: Biotin-PEG peptide immobilized on streptavidin sensors
T2 construct: 10x His (N); made in house; host or cells: E. coli BL21(DE3), pET19b
T2 sequence (P49748 40-655): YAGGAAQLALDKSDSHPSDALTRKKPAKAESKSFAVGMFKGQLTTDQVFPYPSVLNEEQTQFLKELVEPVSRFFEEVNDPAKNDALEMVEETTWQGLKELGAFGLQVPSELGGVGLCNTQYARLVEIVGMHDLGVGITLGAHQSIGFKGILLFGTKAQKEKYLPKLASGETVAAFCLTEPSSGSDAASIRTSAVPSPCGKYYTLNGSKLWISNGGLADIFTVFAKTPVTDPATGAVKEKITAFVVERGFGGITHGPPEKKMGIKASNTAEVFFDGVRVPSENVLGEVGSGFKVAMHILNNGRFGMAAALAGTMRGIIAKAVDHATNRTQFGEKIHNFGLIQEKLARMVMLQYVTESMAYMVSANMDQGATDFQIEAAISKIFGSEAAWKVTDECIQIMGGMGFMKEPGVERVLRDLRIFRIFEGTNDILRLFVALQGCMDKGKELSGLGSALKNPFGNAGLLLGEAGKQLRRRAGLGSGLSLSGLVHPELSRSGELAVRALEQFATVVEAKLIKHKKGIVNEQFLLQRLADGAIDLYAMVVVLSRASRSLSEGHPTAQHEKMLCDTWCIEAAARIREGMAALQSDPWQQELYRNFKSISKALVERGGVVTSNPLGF
Protocol: as §1
VLCAD. Mature human VLCAD lacking its cleavable leader sequence (aa 40-655) (NP_000009.1) was subcloned into the pET19b vector (Novagen) using NdeI and XhoI restriction sites. Correct insertion was confirmed by DNA sequencing. The 10× His-tagged VLCAD construct was expressed in BL21(DE3) E. coli, and once cells reached an OD of 0.8 after growing at 37° C., they were induced with 0.5 mM […] (IPTG) (Gold Biotechnology I2481C) at 37° C. for 4 hours. Bacterial pellets were resuspended in lysis buffer (500 mM NaCl, 50 mM HEPES, 5% glycerol, pH 7.5, complete protease inhibitor tablet) and lysed by microfluidization (M-110L; Microfluidics). […]
BLI binding measurements were performed using an Octet Red384 System (ForteBio). […] Binding parameters were calculated using the accompanying Octet Software version 9 (ForteBio).

T1 sequence (Q07820 172-320 limits assumed, stated change not applied): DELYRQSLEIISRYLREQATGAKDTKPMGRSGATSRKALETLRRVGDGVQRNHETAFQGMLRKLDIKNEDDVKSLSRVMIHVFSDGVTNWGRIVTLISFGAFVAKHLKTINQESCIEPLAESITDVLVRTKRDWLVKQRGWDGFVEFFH

## MCL-1 SAHBD: hydrocarbon-stapled peptide mimicking the MCL-1 BH3 domain (Stabilized Alpha-Helix of BCL-2 Domain), SEQ ID NO:19 (RKALETLRRVGDGV[S5]RNH[S5]TAF; staple 15-19)
CreER^T2 MEFs; Mcl-1^F/F CreER^T2 MEFs not exposed to tamoxifen, 48 hours
  levels of very long-chain acylcarnitines relative to vehicle-treated control: elevated levels
CreER^T2 MEFs; Mcl-1^F/F CreER^T2 MEFs subjected to tamoxifen (Mcl-1 deleted)
  effect on already elevated acylcarnitine levels: no effect
MCL-1ΔNΔC
  19F NMR binding to MCL-1ΔNΔC (chemical shift of the peptide peak): binds directly
VLCAD
  biolayer interferometry association with VLCAD: engages VLCAD
